# Tests used:
# [1] = Metal ion chelation assay using UV-Vis spectrophotometry; assay type: physicochemical
# From the text: The chelation rules of the 3-hydroxyquinazoline-2,4(1H,3H)-diones with magnesium ions were explored by UV-Vis spectrophotometry, which was widely used to study the binding properties of compounds with metal ions in vitro [56, 57, 58]. For the sake of eliminating the interference of heteroaryl groups on the determination of metal ion chelation, the representative compound 21e with phenyl group substituted at the C-7 position was selected to study its chelation ability with Mg^2+ under different conditions. […] This is probably because compound 21e mainly exists in the free molecular state with the N-hydroxyl group protonated in methanol, which is difficult to chelate with Mg^2+. Intriguingly, after the introduction of 5 mm NaOAc to the methanol solution containing 21e, the effect of MgCl2 on the absorbance of the system totally changed (Figure 5B). […] Remarkably, merely 20 μM MgCl2 was able to increase the absorbance by more than 0.5. […] A reasonable logic is that the addition of NaOAc raised the pH of the methanol solution, resulting in partial ionization of compound 21e at the N-hydroxyl group. Subsequently, 21e in the ionic state formed a chelation complex with Mg^2+, which increased the absorbance of the solution.
# With the aim of verifying whether 21e has the ability to chelate with Mg^2+ in the ionic state, we further investigated the influence of various concentrations of NaOAc on the differential UV-Vis spectra caused by the addition of MgCl2. […] Moreover, the magnitude of the variation in the spectrum is proportional to the concentration of NaOAc. […] The comparison between different UV-Vis spectra also verified that compound 21e could chelate with Mg^2+ in the N-hydroxyl deprotonated form rather than the free molecular state.
# 2 mL of methanol solution containing the components in the sample or control group (Table 4) was added to a quartz cuvette (BQ-114-2, Chongqing Xinweier Glass Co., Ltd., Chongqing, China). The absorbance at 200–400 nm was scanned by a UV-Vis spectrophotometer (Agilent Cary 60, Agilent Technologies, Santa Clara, CA, USA), and the blank methanol was used for baseline calibration. The absorbance of the control group was subtracted from that of the sample group at the corresponding wavelength to obtain the differential UV-Vis spectra, which were used to analyze the chelating property of the compound with Mg^2+.
# [2] = tested on: HCV 1b replicon cells (Huh-7.5.1); experiment: Anti-HCV assay, HCV 1b replicon cells with luciferase reporter; assay type: cell-based, hepatitis C virus (HCV) subtype 1b; settings: Hepatitis C virus, Huh-7.5.1, 72 h, inhibitory rate at 5 μM
# [3] = target: T1, C-terminal His-tagged NS5BΔ21 from HCV 1b subtype (Hepatitis C virus genotype 1b, UniProt Q913V3); experiment: Thermal shift assay with NS5B protein; assay type: binding
# T1 construct: C-terminal His-tagged NS5BΔ21 from HCV 1b subtype; His tag (C); made in house
# T1 sequence (Q913V3 2420-2989, stated change not applied): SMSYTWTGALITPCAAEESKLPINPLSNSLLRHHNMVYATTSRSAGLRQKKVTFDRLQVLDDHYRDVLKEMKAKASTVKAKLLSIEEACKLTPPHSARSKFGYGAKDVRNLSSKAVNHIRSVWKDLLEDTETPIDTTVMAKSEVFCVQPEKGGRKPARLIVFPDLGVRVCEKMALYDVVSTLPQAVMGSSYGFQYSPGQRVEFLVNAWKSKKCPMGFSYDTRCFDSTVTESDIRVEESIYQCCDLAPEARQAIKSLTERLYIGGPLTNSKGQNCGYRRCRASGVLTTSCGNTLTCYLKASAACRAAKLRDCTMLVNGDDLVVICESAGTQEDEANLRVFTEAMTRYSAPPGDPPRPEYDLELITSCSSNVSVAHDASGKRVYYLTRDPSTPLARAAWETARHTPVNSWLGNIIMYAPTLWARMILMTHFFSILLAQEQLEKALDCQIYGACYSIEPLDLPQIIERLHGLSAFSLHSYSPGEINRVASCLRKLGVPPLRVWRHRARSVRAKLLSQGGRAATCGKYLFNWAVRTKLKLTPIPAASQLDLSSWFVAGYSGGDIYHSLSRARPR
# From the text: The stability of a protein system is enhanced after binding to its specific ligand, leading to an increase in the melting temperature (Tm). Taking advantage of this feature, the thermal shift assay was extensively used to assess the binding of small molecules to the protein targets. The metal ion chelators were thought to exert an anti-HCV effect by chelating with Mg^2+ in the catalytic center of NS5B [34, 36, 38]. […] C-terminal His-tagged NS5BΔ21 from HCV 1b subtype was used as the protein in the experiment. Compared with the blank control (DMSO), the fluorescence–temperature curves of the NS5B system in the presence of 21e (Figure 3A) and 21k (Figure 3B) at 50 μM, 100 μM, and 200 μM all shifted to the right of the axis. The Tm values of 21e and 21k increased in a concentration-dependent manner, presenting higher values than that of the blank control (Tm = 63.5 °C) at all tested concentrations.
# C-terminal His-tagged NS5BΔ21 from HCV 1b subtype was expressed from pET28a HCR6 plasmid in our lab and dissolved in a Tris-HCl buffer (20 mm, pH 7.2) containing 150 mm NaCl. Then, 1 μL of corresponding concentration (1 mm, 2 mm, or 4 mm) of the test compound in DMSO or 1 μL DMSO alone was added to each well of a 96-well PCR plate (Shanghai Sangon Biotech Co., Ltd., Shanghai, China). Subsequently, 19 μL of pre-prepared PBS solution containing 10 mm MgCl2, 10× SYPRO® orange protein gel stain (Sigma-Aldrich, St. Louis, MO, USA), and 5 μM NS5B protein was added to each well and mixed. The final concentration of DMSO in each well was 5%. The PCR plate was covered with a high-permeable film, incubated at room temperature for 10 min, and then placed on the Applied Biosystems^TM 7500 Real-Time PCR System (Thermo Fisher Scientific, Waltham, MA, USA). The temperature was increased to 90 °C gradually, and the change curve of fluorescence intensity versus system temperature was recorded.
compound,measurement,setting,value
"O=c1[nH]c2cc(-c3ccccc3)ccc2c(=O)n1O [21e, 3-Hydroxy-7-phenylquinazoline-2,4(1H,3H)-dione]",absorbance difference at 254 nm between control group and sample group,"[1]; 50 μM compound in methanol, no NaOAc, MgCl2 up to 640 μM",no more than 0.1
same,increase of absorbance at 254 nm,"[1]; 50 μM compound, 80 μM MgCl2, 200 μM to 5 mm NaOAc in methanol",0.8–1.2
same,increase of absorbance at 254 nm,"[1]; 50 μM compound, 5 mm NaOAc in methanol, 20 μM MgCl2",more than 0.5
same,Mg^2+ concentration at which absorbance change reaches equilibrium,"[1]; 50 μM compound, 5 mm NaOAc in methanol, 254 nm",about 400 μM
same,inhibition at 5 µM,[2],39.5%
same,ΔTm at 50 µM,"[3]; compound 50 μM, Tm of compound group minus Tm of blank control, mean ± SD, three experiments",0.6 ± 0.15 °C
same,ΔTm at 100 µM,"[3]; compound 100 μM, Tm of compound group minus Tm of blank control, mean ± SD, three experiments",0.85 ± 0.02 °C
same,ΔTm 200 μM,"[3]; compound 200 μM, Tm of compound group minus Tm of blank control, mean ± SD, three experiments",1.5 ± 0.01 °C
same,Tm of NS5B complexed with compound,"[3]; in Figure 3, blank control Tm = 63.5 °C",65.0 °C
same,ΔTm at 200 µM,"[3]; read-out: ΔTm 200 μM, compound 200 μM, Tm of compound group minus Tm of blank control, mean ± SD, three experiments",1.6 °C

# Reference: paper PMC9180926, “Discovery of Novel 3-Hydroxyquinazoline-2,4(1H,3H)-Dione Derivatives: A Series of Metal Ion Chelators with Potent Anti-HCV Activities” (International Journal of Molecular Sciences, 2022)
